In US20220251096A1, “7,8-DIHYDRO-4H-PYRAZOLO[4,3-c]AZEPINE-6-ONE COMPOUNDS” (Eli Lilly and Company, priority 2019, published 2022):
Values belong to the compound of their own block, whether it stands above or below them.

How the values were obtained:
[1] = tested on: 22Rv1 prostate cancer cells; assay: Cell proliferation assay in 22Rv1; type: cell-based; details: Homo sapiens, 22Rv1, 168 h, 22Rv1, 7 days; for inhibition at 0.37 µM: single agent at 370 nM
Procedure: The purpose of the following cell proliferation assay is to detect whether the compound of Example 2 and combinations thereof have an effect on cell proliferation.
22Rv1 (purchased from ATCC CRL-2505) cells are seeded at a density of 1,000 cells per well in RMPI 10% FBS (20 μL volume) into a clear bottom 384-well cell culture plate. The plate is incubated at 37° C. and 5% CO2. The cells are dosed the following day with the compound of Example 2 and the compound of Example 2 in combination with the known anti-cancer therapeutics found in the table below. An Echo 555 acoustic dispenser is used to prepare serial dilutions (1:3) of the compound of Example 2, and combinations thereof, in concentrations ranging from 60 μM to 0.003 μM. The cells are then dosed by addition of 5 μL from the serial dilution plate to the cell plate, producing a final DMSO concentration of 0.2% with a final concentration dose ranging from 20 μM to 0.001 μM for the compound of Example 2 and combinations thereof.
Media containing 0.2% DMSO is used for the maximum point and 2 μM staurosporine in the growth media containing 0.2% DMSO is used for the minimum point. After dosing with the compound of Example 2 and combinations thereof, the cell plates are incubated at 37° C. and 5% CO2. Seven days after test compound addition, plates are removed from the incubator and cold EtOH (96%, 65 μL) is added to each well. After 30 minutes, the media is removed and RNase (20 μL, 50 μg/mL) (Sigma) and a 1:1000 propidium iodide dilution in PBS are added to each well. The plates are sealed and incubated for 1 hour at room temperature and preserved from light. Plates are then scanned with ACUMEN EXPLORER™ [Laser-scanning fluorescence microplate cytometer manufactured by TTP LABTECH LTD]. The number of 22Rv1 cells is evaluated through an estimated number of cells, calculated through the area parameter (ratio of total area of the total cells population), a designated range of peak intensity of FL-3 (PI), and the mean area of the single cell population defined by perimeter. Data is then processed through an NGR screening tool. Data is analyzed using a 4-parameter nonlinear logistic equation (four-parameter logistic concentration-response curve): Y=bot+[(top−bot)/1+(x/IC50)slope] where Y=% inhibition, X=concentration yielding y % inhibition, “bot”=minimum value of y attained by curve, “top”=maximum value of y attained by curve, and “slope”=steepness of curve at IC50. % Inh=[(median Max−x/median Max−median Min)]·100.

[2] = molecular target: T1, EP300 (Homo sapiens, UniProt Q09472); assay: BromoKdELECT platform assay, EP300; type: binding; design: purchased DiscoverX (BromoKdELECT service); details: 11 points dose-response, mean from a duplicate experiment
T1 sequence (Q09472 1049-1156 limits assumed): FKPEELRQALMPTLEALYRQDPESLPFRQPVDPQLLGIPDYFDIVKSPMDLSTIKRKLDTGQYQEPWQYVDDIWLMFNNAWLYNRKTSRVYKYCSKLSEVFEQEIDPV
Source text: (§1) The purpose of this assay is to evaluate the in vitro target engagement and selectivity (https://www.discoverx.com/services/drug-discovery-development-services/epigenetic-profiling/bromoscan-epigenetic-profiling/bromokdelect). Assay measurement is based on the amount of bromodomain captured in test and control samples by using quantitative PCR technology that detects the DNA label associated to bromodomain. Compounds that bind the bromodomain active site prevents its binding to the immobilized ligand and will reduce the amount of bromodomain captured on the solid support. […] Thus, compound activity is monitored by measuring the amount of bromodomain captured in test versus control samples by using qPCR. Binding affinity for test compound-bromodomain interactions are calculated by measuring the amount of bromodomain captured on the solid support as a function of the test compound concentration.
(§2) Binding affinity (Kd) of the compounds of Examples 1 and 2 towards CREBBP, EP300 and BRD4 (Bromodomain 1 (BD1) and Bromodomain 2 (BD2)) are determined in an 11 points dose-response study (See Table 5). Data is represented as a mean from a duplicate experiment.

[3] = tested on: NCI-H211; assay: Cell growth inhibition assay, NCI-H211; type: cell-based; details: Homo sapiens, 168 h; NCI-H211, 7 days
Procedure: (§3) Tumor cell lines are plated onto 96-well, black wall poly-D-lysine plates (Corning #354640), and incubated at 37° C., 5% CO2 for 18-24 hours. Compound was added at 1:3 dilutions in DMSO and cells were incubated at 37° C., 5% CO2 for 7 days. For adherent cell lines, cells were fixed and stained with propidium iodide and scanned on Acumen (channel 3 setting). For suspension cell lines, cell growth was monitored using Cell Titer-Glo reagent.

[4] = tested on: MDA-MIB-453; assay: Cell growth inhibition assay, MDA-MIB-453; type: cell-based; details: 168 h; MDA-MIB-453, 7 days
Procedure: as §3

[5] = molecular target: T2, CREBBP (Homo sapiens, UniProt Q92793); assay: BromoKdELECT platform assay, CREBBP; type: binding; design: purchased DiscoverX (BromoKdELECT service); details: 11 points dose-response, mean from a duplicate experiment
Source text: as §1, §2

[6] = molecular target: T3, BRD4 (BD1) (Homo sapiens, UniProt O60885); assay: BromoKdELECT platform assay, BRD4 (BD1); type: binding; details: 11 points dose-response, mean from a duplicate experiment
T3 construct: BRD4 (Bromodomain 1 (BD1) and Bromodomain 2 (BD2)); purchased DiscoverX (BromoKdELECT service)
Source text: as §1, §2

[7] = molecular target: T2, CREBBP; assay: NanoBRET assay, CREBBP bromodomain; type: cell-based; design: NanoLuc-CREBBP-BD (Promega, 0.0002 μg); host or cells: HEK293; details: NanoBRET in HEK293 cells, read after 4 hours incubation; mean ± Standard Deviation
Procedure: (§4) HEK293 cells are seeded at 10×10^6 cells/16 mL in DMEM+10% FBS in a T-75 flask and left to attach for 4-6 hours. Transfection reagents are diluted in Opti-MEM media (no phenol red, no FBS) and 8% Fugene HD containing expression plasmids at a final concentration of the following: 1: Histone H3.3 HaloTag DNA (Promega, 0.02 μg)+NanoLuc-CREBBP-BD (Promega, 0.0002 μg); 2: Histone H3.3 HaloTag DNA (Promega, 0.02 μg)+NanoLuc-EP300-BD (Promega, 0.0002 μg); 3: Histone H4 HaloTag DNA (0.02 μg)+NanLuc-BRD4 Full Length (Promega, 0.0002 μg). The DNA/Fugene mixtures are left at RT for 10 minutes. Transfection mix (800 μL) is added per flask and immediately swirled to cover the cells. The plates are returned to the incubator for overnight transfection. The next day, HaloTag NanoBRET 618 ligand (20 μL/vial of 0.1 mM) is thawed at RT. […]
(§5) Compound is serially diluted and added to 96-well plates (2 10 mM, 3-fold dilutions, 100% DMSO). […] CREBBP/EP300 plates are read after 4 hours incubation and the BRD4 plates are read after overnight incubation. To develop plates for reading, allow all reagents to reach RT before use. […] The plate is shaken for 1 minute to mix and within 10 minutes, read on Envision plate reader with the following settings: Mirror: Luminescence; Emission filter: E600LP; 2nd emission filter: D460/50; Measurement height (mm): 6.5; Measurement time (s): 0.2 second.

[8] = tested on: SW780; assay: Cell growth inhibition assay, SW780; type: cell-based; details: Homo sapiens, 168 h; SW780, 7 days
Procedure: as §3

[9] = molecular target: T4, BRD4 (BD1, BD2) (Homo sapiens, UniProt O60885); assay: BromoKdELECT platform assay, BRD4 (BD1, BD2); type: binding; details: 11 points dose-response, mean from a duplicate experiment
T4 construct: BRD4 (Bromodomain 1 (BD1) and Bromodomain 2 (BD2)); purchased DiscoverX (BromoKdELECT service)
Source text: as §1, §2

[10] = molecular target: T5, BRD4 (BD2) (Homo sapiens, UniProt O60885); assay: BromoKdELECT platform assay, BRD4 (BD2); type: binding; details: 11 points dose-response, mean from a duplicate experiment
T5 construct: BRD4 (Bromodomain 1 (BD1) and Bromodomain 2 (BD2)); purchased DiscoverX (BromoKdELECT service)
Source text: as §1, §2

[11] = tested on: NCI-H1048; assay: Cell growth inhibition assay, NCI-H1048; type: cell-based; details: Homo sapiens, 168 h; NCI-H1048, 7 days
Procedure: as §3

[12] = tested on: EOL-1; assay: Cell growth inhibition assay, EOL-1; type: cell-based; details: Homo sapiens, EOL1, 168 h; EOL-1, 7 days
Procedure: as §3

[13] = molecular target: T1, EP300; assay: NanoBRET assay, EP300 bromodomain; type: cell-based; design: NanoLuc-EP300-BD (Promega, 0.0002 μg); host or cells: HEK293; details: NanoBRET in HEK293 cells, read after 4 hours incubation; mean ± Standard Deviation
Procedure: as §4, §5

[14] = tested on: KG-1a; assay: Cell growth inhibition assay, KG-1a; type: cell-based; details: Homo sapiens, 168 h, 7 days
Procedure: as §3

[15] = molecular target: T6, hBRD4 (Homo sapiens, UniProt O60885); assay: NanoBRET assay, BRD4 full length; type: cell-based; details: NanoBRET in HEK293 cells, read after overnight incubation; mean ± Standard Deviation
T6 construct: NanLuc-BRD4 Full Length (Promega, 0.0002 μg); host or cells: HEK293
Procedure: as §4, §5

T2 sequence (Q92793 1085-1192 limits assumed): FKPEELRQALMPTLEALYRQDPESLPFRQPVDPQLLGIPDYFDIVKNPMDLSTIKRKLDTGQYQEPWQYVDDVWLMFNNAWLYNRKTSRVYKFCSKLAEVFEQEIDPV

Structure (SMILES): CCN1CCN(Cc2ccc(Nc3ncc(F)c(-c4cc(F)c5nc(C)n(C(C)C)c5c4)n3)nc2)CC1 [Abemaciclib, abemaciclib, reference compound]
inhibition at 0.012 µM ([1]; single agent at 12 nM): 34.3%
inhibition at 0.037 µM ([1]; single agent at 37 nM): 62.4%

Structure (SMILES): Cc1nc(NC(=O)N2CCC[C@H]2C(N)=O)sc1-c1ccnc(C(C)(C)C(F)(F)F)c1 [Alpelisib, alpelisib, reference compound]
inhibition at 0.12 µM ([1]; single agent at 120 nM): 33.1%
inhibition at 0.37 µM [1]: 45.3%

Structure (SMILES): CC(O)c1cc(C(=O)N[C@@H](C)Cn2ccc(-c3ccc(C#N)c(Cl)c3)n2)[nH]n1 (stereo partly shown) [Darolutamide, darolutamide, reference compound]
inhibition at 0.74 µM ([1]; single agent at 740 nM): 6.69%
inhibition at 2.2 µM ([1]; single agent at 2.2 μM): 6.18%

Structure (SMILES): CNC(=O)c1ccc(N2C(=S)N(c3ccc(C#N)c(C(F)(F)F)c3)C(=O)C2(C)C)cc1F [Enzalutamide, enzalutamide, reference compound]
inhibition at 0.37 µM [1]: -0.12%
inhibition at 3.3 µM ([1]; single agent at 3.3 μM): 0.41%

Kd [2]: 0.16 nM
IC50 [3]: 36 nM
Kd [5]: 1.1 nM
Kd [6]: 2000 nM
IC50 [7]: 16 ± 6.64 nM
IC50 [8]: 1 nM
Kd [9]: 4400 nM
Kd [10]: 6700 nM
IC50 [11]: 10 nM
IC50 [13]: 15.1 ± 2.75 nM
IC50 [15]: 5570 ± 4100 nM
Structure (SMILES): CNC(=O)c1ccc(-c2cc3cccc(-c4nn(C)c5c4CN(C)C(=O)CC5)c3cn2)cn1 [Example 1, 5-[8-(1,5-Dimethyl-6-oxo-7,8-dihydro-4H-pyrazolo[4,3-c]azepin-3-yl)-3-isoquinolyl]-N-methyl-pyridine-2-carboxamide]
IC50 [4]: 28 nM
IC50 [12]: 0.8 nM
IC50 [14]: 37 nM
